Consider one compound from US12491227B2, “Crila® and EGCG compositions for treatment of fibroids” (Altin Biosciences Corporation, priority 2022, dated 2025).

Test [1] deals with Human uterine leiomyoma (HuLM) cells. Put plainly: MTT cell proliferation / viability assay in HuLM cells. The format is cell-based. The note with it: EGCG alone. Here is the method:
Effect of Crila® or a Crila® composition (Table 1) and/or EGCG on the Uterine Fibroid Growth: In one study, we used Human Leiomyoma (HuLM) Cells in our initial evaluation of Crila® and/or EGCG treatment. Crila®, used alone or in combination with EGCG, were evaluated for their ability to inhibit the proliferation of HuLM cells in an experimental approach as described below. Similarly, the Crila® compositions are evaluated for their ability to inhibit the proliferation of HuLM cells in an experimental approach as described below. Crila® and/or EGCG were analyzed at the various concentrations and time points specified. […] Thereafter, the extract was sterile filtered through 0.22 μm PES filter and stored at room temperature until further use. EGCG was dissolved in DMSO to make a 100 mM stock solution or in dH2O to make 10 mM stock solution. Cell proliferation assay was performed by dimethylthiazolyl diphenyltetrazolium bromide (MTT) assay. Human uterine leiomyoma (HuLM) cells were cultured in DMEM/F12 containing 10% fetal bovine serum. […] Samples were measured (from the treated wells and control wells) after 1 to 2 days, 3 days, 5 days and 7 days. […] Relative cell viability was determined by using the MTT assay. […] Absorbance was measured in Varioskan Lux microplate reader (ThermoFisher) at 570 nm. […]

Another test concerns fibroid tumor. The note with it: nude mouse model; cited from earlier work.
Another test relates to BMP2 gene. The note with it: EGCG-treated human fibroid cells; cited from earlier work.
For test [2], the target named is T1, Catechol-O-methyl transferase (COMT) (Homo sapiens, UniProt P21964).
T1 sequence (P21964 1-271): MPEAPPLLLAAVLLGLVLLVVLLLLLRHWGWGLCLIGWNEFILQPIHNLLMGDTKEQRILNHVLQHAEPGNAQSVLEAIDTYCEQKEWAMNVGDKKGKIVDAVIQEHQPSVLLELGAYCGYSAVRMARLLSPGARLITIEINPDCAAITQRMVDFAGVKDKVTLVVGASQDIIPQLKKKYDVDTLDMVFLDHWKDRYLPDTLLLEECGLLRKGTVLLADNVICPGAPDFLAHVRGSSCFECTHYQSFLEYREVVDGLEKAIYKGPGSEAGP
The settings on record: cited from earlier work.

A further test deals with TGF-β3. The note with it: human fibroid cells; cited from earlier work.

Take `O=C(O[C@@H]1Cc2c(O)cc(O)cc2O[C@@H]1c1cc(O)c(O)c(O)c1)c1cc(O)c(O)c(O)c1` [EGCG, epigallocatechin gallate]: the “concentration from which HuLM cells viability is effectively reduced” value in test [1] (after 5 days treatment) is not below 50 µM; in test [1] (after 7 days treatment), not below 25 µM. Also, the “fibroid tumor formation in vivo” value in the test with fibroid tumor is given as “inhibiting fibroid tumor formation”. Also, the “increase in the expression of the BMP2 gene versus untreated control” value in the test on BMP2 gene is reported as 14 fold. For the same compound, in test [2], the COMT inhibitor effect result is “potent COMT inhibitor effect”. The TGF-β3 production entry in the test on TGF-β3 is given as “significantly decreased”.
